Results as given in PubChem BioAssay AID1918941 (Molecular Pharmacology Branch, DTP, NCI, 2023).

Test system: SW 1271 complex spheroids, viability
Assay: Anticancer human tumor SW 1271 cell line growth inhibition [LSD1];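 also: spheroids exposed to agents for 7 days before luminescence read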;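 as to viability, T/C: 100% = DMSO vehicle control viability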
Settings: for IC50: curve of first compound; for viability, T/C: stronger effect = lower value
Text: Multicellular complex tumor spheroid response to LSD1 Inhibitor Iadademstat in combination with a variety of drugs and investigational agents in selected tumor cell lines
The current study was undertaken to assess response to LSD1 inhibitors in combination with standard-of-care drugs and investigational agents in solid tumor complex spheroid models as well as in the K-562 leukemia. Complex spheroids include a stromal component modeled by human endothelial cells (HUVEC) and fibroblasts modeled by human mesenchymal stem cells (MSCs). The concentration ranges selected for each drug and investigational agent were based upon clinically achievable concentrations if the clinical Cmax of the agent was known.
Compounds. The drugs and investigational agents used in this study are listed on Table 1. All of the agents used, including staurosporine (NSC755774) and gemcitabine (NSC613327), were obtained from the Developmental Therapeutics Program, NCI. FDA-approved anticancer drugs are available from the NCI at http://dtp.nci.nih.gov/branches/dscb/oncology_drugset_explanation.html. Drugs and investigational agents were >95% pure by proton nuclear magnetic resonance (NMR) and liquid chromatography/mass spectrometry (LC/MS). Stock solutions were prepared at 400x in DMSO, stored at -70 degrees C, and diluted in fresh medium prior to their use. The final concentration of DMSO in cell culture wells never exceeded 0.25% (v/v). The FDA-approved anticancer drug set is available from the Developmental Therapeutics Program at https://dtp.cancer.gov/organization/dscb/obtaining/available_plates.htm. All drugs and investigational agents were tested over a range starting from a high concentration at or near the clinical Cmax and decreasing in half-log increments. If the clinical Cmax for an agent had not been determined, the highest concentration tested was 10 microM.
Cell Lines. The patient-derived cancer cell (PDC) lines: 292921-168-R-J2-PDC, K24384-001-R-PDC, and 521955-158-R2-J5-PDC pancreatic carcinomas, 556581-035-R-J1 ovarian carcinoma, 324938-238-R-J1-PDC, 855422-203-R-J1-PDC and 883617-216-R-J1-PDC urothelial bladder carcinomas, 743489-274-T-PDC renal cell carcinoma, 138582-R-J1 Merkel cell tumor, K60290-347-R-J1 and K57222-313-R-J1-PDC glioblastomas, 653999-131-R-J2-PDC, LG0703-F948-PDC, and 349418-098-R-PDC non-small cell lung carcinomas, 885512-296-R-J2-PDC, 171881-019-R-J1-PDC breast carcinomas and 186277-243-T-J2-PDC and 233499-124-R-J2-PDC colon carcinomas were obtained from the NCI Patient-Derived Models Repository (PDMR, https://pdmr.cancer.gov). The established cell lines NCI/ADR-RES (RRID:CVCL_14520 and OVCAR-5 (RRID:CVCL_1628) ovarian carcinomas, 786-O (RRID:CVCL_1051) and A498 (RRID:CVCL_A498) renal cell carcinoma, NCI-H211 (ATCC, cat. CRL-5824; RRID:CVCL_1529), NCI-H196 (ATCC, cat. CRL-5823, RRID:CVCL_1509), SW 1271 (ATCC, cat. CRL-2177, RRID:CVCL_1716) and NCI-H1876 (ATCC, cat. CRL-5902, RRID:CVCL_1503) small cell lung carcinomas, MDA-MB-231 (RRID:CVCL_0062) and MDA-MB-468 (RRID:CVCL_0419)breast carcinomas (10-12). Pooled donor human umbilical vein endothelial cells (HUVEC, Lonza, cat. CC-2519) and human mesenchymal stem cells (hMSC, Lonza, cat. PT-2501) were purchased from Lonza (Walkersville, MD).
Cell Culture. All cells were maintained in an incubator at 37 degrees C and 5% CO2 with 95% humidity. The PDC lines were cultured according to standard operating procedures established by the NCI PDMR (https://pdmr.cancer.gov). Briefly all PDCs were thawed and cultured in Matrigel-coated flasks prepared with a working solution of 1X Ham's F-12 nutrient mix, without supplementation (Invitrogen, Waltham, MA, cat. 11765054), 100 U/mL penicillin-streptomycin (Invitrogen, cat. 15140122), and 2.5% Matrigel (Corning Inc., Corning, NY, cat. 354248) for the first three passages. […]

`Nc1ccn(C2OC(CO)C(O)C2(F)F)c(=O)n1` (stereo not given) + NC1CC1c1ccc(-c2cccc(O)c2)cc1 gave an IC50 (second compound 0.1 µM) greater than 0.3 µM, an IC50 (second compound 0.316 µM) greater than 0.3 µM and an IC50 (second compound 1 µM) greater than 0.3 µM. It also gave an IC50 (second compound 3.16 µM) greater than 0.3 µM, an IC50 (second compound 10 µM) greater than 0.3 µM and a viability, T/C (second compound 0.1 µM, first compound 0.000949 µM) of 76.7%. It also gave a viability, T/C (second compound 0.1 µM, first compound 0.003 µM) of 68.7%, a viability, T/C (second compound 0.1 µM, first compound 0.00949 µM) of 63.3% and a viability, T/C (second compound 0.1 µM, first compound 0.03 µM) of 54%. It also gave a viability, T/C (second compound 0.1 µM, first compound 0.0949 µM) of 64.9%, a viability, T/C (second compound 0.1 µM, first compound 0.3 µM) of 58% and a viability, T/C (second compound 0.316 µM, first compound 0.000949 µM) of 65.9%. For the same compound, the viability, T/C (second compound 0.316 µM, first compound 0.003 µM) was 54.7%, the viability, T/C (second compound 0.316 µM, first compound 0.00949 µM) was 55.7% and the viability, T/C (second compound 0.316 µM, first compound 0.03 µM) was 57.4%. The viability, T/C (second compound 0.316 µM, first compound 0.0949 µM) was 54.3%, the viability, T/C (second compound 0.316 µM, first compound 0.3 µM) was 64.2% and the viability, T/C (second compound 1 µM, first compound 0.000949 µM) was 62.1%. The viability, T/C (second compound 1 µM, first compound 0.003 µM) was 64.2%, the viability, T/C (second compound 1 µM, first compound 0.00949 µM) was 57.5% and the viability, T/C (second compound 1 µM, first compound 0.03 µM) was 55.5%. For the same compound, the viability, T/C (second compound 1 µM, first compound 0.0949 µM) was 58.5%, the viability, T/C (second compound 1 µM, first compound 0.3 µM) was 61.3% and the viability, T/C (second compound 3.16 µM, first compound 0.000949 µM) was 65.3%. It also gave a viability, T/C (second compound 3.16 µM, first compound 0.003 µM) of 58.3%, a viability, T/C (second compound 3.16 µM, first compound 0.00949 µM) of 51.4% and a viability, T/C (second compound 3.16 µM, first compound 0.03 µM) of 52%. For the same compound, the viability, T/C (second compound 3.16 µM, first compound 0.0949 µM) was 56.2%, the viability, T/C (second compound 3.16 µM, first compound 0.3 µM) was 47.3% and the viability, T/C (second compound 10 µM, first compound 0.000949 µM) was 62.1%. For the same compound, the viability, T/C (second compound 10 µM, first compound 0.003 µM) was 57.7%, the viability, T/C (second compound 10 µM, first compound 0.00949 µM) was 51.1% and the viability, T/C (second compound 10 µM, first compound 0.03 µM) was 60.1%. The viability, T/C (second compound 10 µM, first compound 0.0949 µM) was 48.5% and the viability, T/C (second compound 10 µM, first compound 0.3 µM) was 51.2%.

In the case of `O=C(c1cc(Cc2n[nH]c(=O)c3ccccc23)ccc1F)N1CCN(C(=O)C2CC2)CC1` + NC1CC1c1ccc(-c2cccc(O)c2)cc1, the IC50 (second compound 0.1 µM) is reported as 8.95 µM, the IC50 (second compound 0.316 µM) is reported as 5.66 µM and the IC50 (second compound 1 µM) is reported as 6.29 µM. It also gave an IC50 (second compound 3.16 µM) of 3.74 µM, an IC50 (second compound 10 µM) greater than 10 µM and a viability, T/C (second compound 0.1 µM, first compound 0.0316 µM) of 78.1%. For the same compound, the viability, T/C (second compound 0.1 µM, first compound 0.1 µM) was 87%, the viability, T/C (second compound 0.1 µM, first compound 0.316 µM) was 92.7% and the viability, T/C (second compound 0.1 µM, first compound 1 µM) was 72.9%. It also gave a viability, T/C (second compound 0.1 µM, first compound 3.16 µM) of 61.4%, a viability, T/C (second compound 0.1 µM, first compound 10 µM) of 48.2% and a viability, T/C (second compound 0.316 µM, first compound 0.0316 µM) of 84.5%. For the same compound, the viability, T/C (second compound 0.316 µM, first compound 0.1 µM) was 76.1%, the viability, T/C (second compound 0.316 µM, first compound 0.316 µM) was 78% and the viability, T/C (second compound 0.316 µM, first compound 1 µM) was 67.5%. It also gave a viability, T/C (second compound 0.316 µM, first compound 3.16 µM) of 54.9%, a viability, T/C (second compound 0.316 µM, first compound 10 µM) of 44.1% and a viability, T/C (second compound 1 µM, first compound 0.0316 µM) of 81.4%. The viability, T/C (second compound 1 µM, first compound 0.1 µM) was 74.4%, the viability, T/C (second compound 1 µM, first compound 0.316 µM) was 70% and the viability, T/C (second compound 1 µM, first compound 1 µM) was 65.1%. For the same compound, the viability, T/C (second compound 1 µM, first compound 3.16 µM) was 56.8%, the viability, T/C (second compound 1 µM, first compound 10 µM) was 45.4% and the viability, T/C (second compound 3.16 µM, first compound 0.0316 µM) was 72.1%. For the same compound, the viability, T/C (second compound 3.16 µM, first compound 0.1 µM) was 63.4%, the viability, T/C (second compound 3.16 µM, first compound 0.316 µM) was 68.3% and the viability, T/C (second compound 3.16 µM, first compound 1 µM) was 58.4%. The viability, T/C (second compound 3.16 µM, first compound 3.16 µM) was 52.9%, the viability, T/C (second compound 3.16 µM, first compound 10 µM) was 38.9% and the viability, T/C (second compound 10 µM, first compound 0.0316 µM) was 66.9%. For the same compound, the viability, T/C (second compound 10 µM, first compound 0.1 µM) was 66.8%, the viability, T/C (second compound 10 µM, first compound 0.316 µM) was 63% and the viability, T/C (second compound 10 µM, first compound 1 µM) was 57.9%. It also gave a viability, T/C (second compound 10 µM, first compound 3.16 µM) of 52.7% and a viability, T/C (second compound 10 µM, first compound 10 µM) of 51.3%.
